Test results as given in patent US20240391931A1 (Bristol-Myers Squibb Company, priority 2021, published 2024).

What was measured:
[1] = target: T1, HER2 wildtype (WT) protein (Homo sapiens, UniProt P04626); assay: HER2 signaling (pHER2 Tyr1248/total HER2 MSD) in BT474 cells; assay type: cell-based; conditions: 1.5 hr compound, 1% FBS
T1 construct: BT474 and N87 cell lines which endogenously overexpress the HER2 wildtype (WT) protein; endogenous in cells; host or cells: BT474, N87
Procedure: (§1) In addition to the engineered cell lines, the following cell lines were used: BT474 (human breast carcinoma), N87 (human gastric carcinoma), NCI-H1781 (human lung adenocarcinoma), and A431 (human epidermoid carcinoma); all cell lines were obtained from the American Type Culture Collection (ATCC, Manassas, VA). NCI-H1781 were grown in complete RPMI 1640 (Life Technologies, Carlsbad, CA) supplemented with 15% fetal bovine serum (FBS, Life Technologies, Carlsbad, CA) and 1% Penicillin-Streptomycin (P/S, Life Technologies, Carlsbad, CA). N87 cells were grown in complete RPMI 1640 supplemented with 10% FBS and 1% P/S. BT474 and A431 cells were grown in DMEM (Life Technologies, Carlsbad, CA) supplemented with 10% FBS and 1% P/S. All cells were maintained and propagated in a humidified 5% CO2 incubator at 37° C.
HER2 signaling was assessed in BT474 and N87 cell lines which endogenously overexpress the HER2 wildtype (WT) protein, in NCI-H1781 cells which endogenously expresses a HER2 mutant protein containing a VC insertion in the kinase domain (HER2VC or G776delinsVC), and in engineered cell lines transduced to express the Her2 mutant protein containing the YVMA insertion (Hek293-HER2YVMA and BEAS2B-HER2YVMA).
BT474, N87, and NCI-H1781 were plated in 96-well tissue-culture treated plates (Corning Costar, Sigma-Aldrich) in full media and incubated overnight. Hek293-HER2YVMA and BEAS2B-HER2YVMA cells were plated in 96-well poly-D-lysine treated plates (BD Bioscience, San Jose, CA). For treatment with test compounds, the media was replaced with corresponding low serum media (1% FBS) containing test compound at 1.1, 0.37, 0.12, 0.041, 0.014, 0.005, 0.0014, 0.0005 μM or DMSO control (0.1%). Cells were incubated with compound for 1.5 hr at 37° C. After compound treatment, the media was removed and cells were lysed for 30 min on ice in complete MSD lysis buffer (prepared using MSD base lysis buffer (Meso-Scale Discovery) supplemented with cOmplete, EDTA-free Protease inhibitor cocktail (Roche), Phosphatase Inhibitor Cocktails 2 and 3 (Sigma-Aldrich), and 1 mM PMSF (Sigma-Aldrich)). Lysates were stored at −70° C. until further analysis.
HER2 signaling was evaluated using phospho (Tyr1248)/total ErbB2 whole cell lysate MSD plates (Meso-Scale Discovery, Gaithersburg, MD). The phospho HER2 signal was normalized to total HER2 for each sample; results are reported as % DMSO control. The normalized data was fitted using a sigmoidal curve analysis program (Graph Pad Prism version 6) with variable Hill slope to determine EC50 values.
The HER2 signaling results are provided in Table 4, under columns titled “BT474-pHER2 EC50”, “N87-pHER2 EC50”, and “NCI-H1781-pHER2 EC50”. Hek293-HER2YVMA ins fall under the heading “HEKYVMA-pHER2 EC50”, Ba/F3 HER2YVMA fall under the heading “Ba/F3 YVMA-pHER2 EC50” and BEAS2B-HER2YVMA fall under the heading “BEAS2B YVMA-pHER2 EC50”.

[2] = target: T2, HER2 WT (Homo sapiens, UniProt P04626); assay: Enzymatic assay HER2 WT (method a); assay type: biochemical; conditions: [HER2 WT]=12.5 nM, [ATP]=25 μM, [Peptide 22]=1 μM
T2 construct: purchased ProQinase, Freiburg, Germany ERBB2 0108-0000-1
T2 sequence (P04626 23-1255): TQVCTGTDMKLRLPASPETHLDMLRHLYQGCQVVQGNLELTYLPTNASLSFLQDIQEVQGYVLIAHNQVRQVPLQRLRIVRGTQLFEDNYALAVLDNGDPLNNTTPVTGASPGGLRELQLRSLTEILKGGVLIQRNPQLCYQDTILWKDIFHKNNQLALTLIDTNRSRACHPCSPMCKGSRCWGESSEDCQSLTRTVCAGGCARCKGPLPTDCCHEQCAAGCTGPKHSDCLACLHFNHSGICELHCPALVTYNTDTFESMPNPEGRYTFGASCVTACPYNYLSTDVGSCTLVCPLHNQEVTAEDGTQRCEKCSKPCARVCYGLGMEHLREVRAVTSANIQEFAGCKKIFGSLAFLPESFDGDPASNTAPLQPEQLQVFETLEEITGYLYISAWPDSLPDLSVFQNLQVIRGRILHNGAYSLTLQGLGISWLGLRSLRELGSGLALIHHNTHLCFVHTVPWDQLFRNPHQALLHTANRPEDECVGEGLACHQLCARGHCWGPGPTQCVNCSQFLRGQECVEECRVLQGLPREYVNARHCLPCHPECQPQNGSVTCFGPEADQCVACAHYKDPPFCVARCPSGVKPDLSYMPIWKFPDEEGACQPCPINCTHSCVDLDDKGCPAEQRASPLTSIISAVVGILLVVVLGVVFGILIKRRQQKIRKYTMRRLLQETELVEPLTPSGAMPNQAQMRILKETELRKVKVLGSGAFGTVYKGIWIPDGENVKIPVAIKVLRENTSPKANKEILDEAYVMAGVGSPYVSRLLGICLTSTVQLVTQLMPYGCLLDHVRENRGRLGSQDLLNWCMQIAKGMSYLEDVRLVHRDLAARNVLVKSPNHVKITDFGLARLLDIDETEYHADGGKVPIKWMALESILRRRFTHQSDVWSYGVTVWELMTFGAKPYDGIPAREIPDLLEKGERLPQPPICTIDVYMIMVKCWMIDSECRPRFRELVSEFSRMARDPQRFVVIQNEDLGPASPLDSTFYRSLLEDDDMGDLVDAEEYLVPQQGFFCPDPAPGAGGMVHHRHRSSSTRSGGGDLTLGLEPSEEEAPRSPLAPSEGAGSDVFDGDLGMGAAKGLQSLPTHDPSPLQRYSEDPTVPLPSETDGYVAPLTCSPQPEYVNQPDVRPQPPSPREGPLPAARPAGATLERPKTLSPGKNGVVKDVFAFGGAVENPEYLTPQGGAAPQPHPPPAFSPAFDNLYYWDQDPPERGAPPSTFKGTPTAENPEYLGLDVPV
Procedure: (§2) A 2× stock solution of HER2 WT (ERBB2 0108-0000-1; ProQinase, Freiburg, Germany) corresponding to method a, was prepared as described below. Alternatively, a 2× stock solution of HER2YVMA (custom purification; Viva biotech, Shanghai, China) corresponding to method b, was prepared as described below. For method c, a 2× stock of EGFR (ERBB1 PR7295B, Thermo Fisher, Carlsbad, CA) was prepared as described below. All 2× solutions were prepared in buffer containing 50 mM HEPES, pH 7.5, 10 mM MnCl2, MgCl2, 0.005% Tween 20, 1 mM TCEP. 25 ul of 2× enzyme solution was added to a Seahorse low volume 384-well polypropylene assay plate (201288-100, Seahorse Bioscience, Chicopee, MA) containing 1 μl of compound serially diluted in 50% DMSO. To initiate the reaction, 25 μl of solution containing 2× final concentration of ATP and ProfilerPro Peptide 22 (760366, Perkin Elmer Hopkinton, MA) was added to each well. The reactions were separated on an LC3000 (Caliper Life Sciences) or a LabChip EZReader (Perkin Elmer) in kinetic mode.
(§3) At the conclusion of each assay, the data were exported from the instrument as a .rda file (LC3000) and processed in proprietary software, EZReviewer, which determines the percent of substrate converted to product within a given cycle as (P/P+S)*100 by measuring the amplitude of substrate and product peaks. Cycle time varied with amount of compounds tested between 8 and 12 cycles. Initial velocity (0-3600 s) from each reaction was determined from the slope of a plot of percent conversion at each cycle versus time (seconds). Percent inhibition was determined by dividing the slope of each reaction by the uninhibited control using 100*(1-(x/uninhibited control)). IC50 estimates were obtained by plotting the concentration of inhibitor versus percent inhibition in GraphPad Prism (GraphPad Software, San Diego, CA) using log[inhibitor] versus Response (Variable Slope Model); Y=Min+((Max-Min)/(1+((IC50/x)^Hillslope)))
(§4) • a) [HER2 WT]=12.5 nM, [ATP]=25 μM, [Peptide 22]=1 μM (ATP KMapp˜25 μM) • b) [HER2YVMA]=5 nM, [ATP]=25 μM, [Peptide 22]=1 μM (ATP KMapp˜15 μM) • c) [EGFR WT]=2 nM, [ATP]=1 mM, [Peptide 22]=1 μM (ATP KMapp˜25 μM)

[3] = target: HER2YVMA (Homo sapiens, UniProt P04626, INS775YVMA); assay: Enzymatic assay HER2YVMA (method b); assay type: biochemical; parameters: purchased Viva biotech, Shanghai, China custom purification; conditions: [HER2YVMA]=5 nM, [ATP]=25 μM, [Peptide 22]=1 μM
HER2YVMA, sequence (P04626 with tags, fused parts or gaps INS775YVMA): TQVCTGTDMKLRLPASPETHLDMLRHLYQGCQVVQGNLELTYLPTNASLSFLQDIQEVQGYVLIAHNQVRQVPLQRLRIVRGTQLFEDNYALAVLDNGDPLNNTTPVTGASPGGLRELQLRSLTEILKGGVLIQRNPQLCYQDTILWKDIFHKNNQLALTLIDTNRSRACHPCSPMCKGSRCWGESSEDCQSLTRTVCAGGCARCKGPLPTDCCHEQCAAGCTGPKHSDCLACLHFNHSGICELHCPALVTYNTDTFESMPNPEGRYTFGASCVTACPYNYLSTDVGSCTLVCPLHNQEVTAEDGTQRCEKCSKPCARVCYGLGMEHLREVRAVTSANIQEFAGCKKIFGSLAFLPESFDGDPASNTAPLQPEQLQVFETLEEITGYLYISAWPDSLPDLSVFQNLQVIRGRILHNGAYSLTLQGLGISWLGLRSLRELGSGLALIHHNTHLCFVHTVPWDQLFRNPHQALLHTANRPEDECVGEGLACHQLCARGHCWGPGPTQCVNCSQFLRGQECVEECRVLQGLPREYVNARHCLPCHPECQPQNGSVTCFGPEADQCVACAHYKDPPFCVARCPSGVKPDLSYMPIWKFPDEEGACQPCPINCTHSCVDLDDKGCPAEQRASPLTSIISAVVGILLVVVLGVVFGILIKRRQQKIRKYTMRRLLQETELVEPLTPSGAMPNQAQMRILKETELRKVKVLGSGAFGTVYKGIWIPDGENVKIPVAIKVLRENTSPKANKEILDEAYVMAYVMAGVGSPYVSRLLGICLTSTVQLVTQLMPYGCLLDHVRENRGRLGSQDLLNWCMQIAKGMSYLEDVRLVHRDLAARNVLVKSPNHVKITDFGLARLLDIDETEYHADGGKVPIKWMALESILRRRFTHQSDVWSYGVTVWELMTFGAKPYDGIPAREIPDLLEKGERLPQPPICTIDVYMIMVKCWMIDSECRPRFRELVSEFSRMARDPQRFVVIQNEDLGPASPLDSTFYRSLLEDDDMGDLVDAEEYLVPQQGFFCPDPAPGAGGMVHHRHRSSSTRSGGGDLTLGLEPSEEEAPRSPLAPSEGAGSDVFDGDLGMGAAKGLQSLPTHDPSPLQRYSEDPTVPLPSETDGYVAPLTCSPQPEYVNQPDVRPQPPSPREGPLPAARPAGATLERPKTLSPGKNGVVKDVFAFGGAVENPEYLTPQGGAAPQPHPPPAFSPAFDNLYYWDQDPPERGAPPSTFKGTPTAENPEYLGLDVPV
Procedure: as §2, §3, §4

[4] = target: T3, EGFR WT (Homo sapiens, UniProt P00533); assay: Enzymatic assay EGFR WT (method c); assay type: biochemical; conditions: [EGFR WT]=2 nM, [ATP]=1 mM, [Peptide 22]=1 μM
T3 construct: purchased Thermo Fisher, Carlsbad, CA ERBB1 PR7295B
T3 sequence (P00533 25-1210): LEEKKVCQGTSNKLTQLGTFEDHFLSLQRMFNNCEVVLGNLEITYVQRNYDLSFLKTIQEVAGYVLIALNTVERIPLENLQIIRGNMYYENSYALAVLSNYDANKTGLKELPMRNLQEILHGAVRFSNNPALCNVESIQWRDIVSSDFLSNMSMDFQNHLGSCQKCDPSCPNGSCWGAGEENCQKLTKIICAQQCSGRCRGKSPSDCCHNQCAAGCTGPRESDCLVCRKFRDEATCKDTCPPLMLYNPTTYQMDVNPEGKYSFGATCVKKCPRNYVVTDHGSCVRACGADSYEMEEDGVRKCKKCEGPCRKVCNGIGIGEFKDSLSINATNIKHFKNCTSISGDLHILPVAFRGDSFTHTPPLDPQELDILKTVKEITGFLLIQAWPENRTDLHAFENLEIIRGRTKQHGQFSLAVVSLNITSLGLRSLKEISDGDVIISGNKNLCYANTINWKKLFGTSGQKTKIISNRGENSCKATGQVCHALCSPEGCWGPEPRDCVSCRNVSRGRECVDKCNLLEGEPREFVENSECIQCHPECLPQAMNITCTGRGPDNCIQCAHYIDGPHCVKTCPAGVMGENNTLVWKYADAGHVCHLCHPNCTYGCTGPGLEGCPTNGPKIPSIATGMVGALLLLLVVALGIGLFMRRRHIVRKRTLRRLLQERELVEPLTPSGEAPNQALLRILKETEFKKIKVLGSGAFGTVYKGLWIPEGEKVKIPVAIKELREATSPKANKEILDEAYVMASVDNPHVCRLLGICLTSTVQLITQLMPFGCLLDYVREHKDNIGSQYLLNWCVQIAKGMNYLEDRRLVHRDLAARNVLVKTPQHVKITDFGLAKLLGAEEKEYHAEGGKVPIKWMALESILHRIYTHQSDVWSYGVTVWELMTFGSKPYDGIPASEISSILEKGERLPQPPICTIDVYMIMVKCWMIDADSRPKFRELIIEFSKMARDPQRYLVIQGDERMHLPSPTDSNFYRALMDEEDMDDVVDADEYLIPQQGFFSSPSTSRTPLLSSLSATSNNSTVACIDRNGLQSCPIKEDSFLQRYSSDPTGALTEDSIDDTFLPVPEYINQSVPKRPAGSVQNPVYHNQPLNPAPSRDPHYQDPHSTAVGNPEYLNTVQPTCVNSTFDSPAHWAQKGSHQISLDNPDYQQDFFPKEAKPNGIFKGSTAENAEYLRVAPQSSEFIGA
Procedure: as §2, §3, §4

[5] = target: EGFR (Homo sapiens, UniProt P00533); assay: EGFR signaling (pEGFR Tyr1068/total EGFR MSD) in A431 cells; assay type: cell-based; parameters: endogenous in cells; host or cells: A431, N87; conditions: for EC50: A431 cells, read-out: A431 pEGFR EC50; for Selectivity A431 EC50/BT474 EC50: ratio A431 pEGFR EC50 to BT474 pHER2 EC50
Procedure: as §1
A431 Cells were plated in 96-well tissue-culture treated plates in full media for 6 h, then starved with media containing 0.1% FBS for overnight. Media was replaced with low serum media (1% FBS) containing compound at 10, 3.3, 1.1, 0.37, 0.12, 0.041, 0.014, 0.005 μM or DMSO control (0.1%). Cells were incubated for 1.5 hr, then stimulated with 100 ng/mL human EGF (PeproTech, Rocky Hill, NJ) for 10 minutes. Cells were washed with cold PBS, and lysed for 30 min on ice in complete MSD lysis buffer (prepared as described in HER2 Signaling Method); lysates were stored at −70° C. until further analysis. EGFR signaling was evaluated using phospho (Tyr 1068)/total EGFR whole cell lysate kit (Meso-Scale Discovery, Gaithersburg, MD). The phospho EGFR signal was normalized to total EGFR for each sample; results are reported as % DMSO control. The normalized data was fitted using a sigmoidal curve analysis program (Graph Pad Prism version 6) with variable Hill slope to determine EC50 values. The results are provided in Table 4, under column titled “A431-pEGFR EC50”.

T1 sequence (P04626 23-1255): as the sequence (P04626 23-1255) above

EC50 [1] [nM]	IC50 [2] [nM]	IC50 [3] [nM]	IC50 [4] [nM]	EC50 [5] [nM]	Selectivity A431 EC50/BT474 EC50 [5]	Compound
< 100	< 100	100 to 1000	> 10000	100 to 1000	A (A: ≥100)	Cc1ccc(Oc2ccc(Nc3ncnc4sc5c(c34)CCN(C(=O)/C=C/CN3CCOC4(CCC4)C3)C5)cc2C)cn1 [Compound 30]
	< 100	< 100	1000 to 10000			C=CC(=O)N1CCc2c(sc3ncnc(Nc4ccc(Oc5ccc6ncnn6c5)c(C)c4)c23)C1 [Compound 2, 1-(4-((4-([1,2,4]triazolo[1,5-a]pyridin-6-yloxy)-3-methylphenyl)amino)-5,8-dihydropyrido[4′,3′:4,5]thieno[2,3-d]pyrimidin-7(6H)-yl)prop-2-en-1-one]
	100 to 1000	100 to 1000	> 10000			C[C@H]1COCCN1C/C=C/C(=O)N1CCc2c(sc3ncnc(Nc4ccc(Oc5ccc6ncnn6c5)c(Cl)c4)c23)C1 [Compound 90]
	100 to 1000	100 to 1000	> 10000			Cc1cc(Nc2ncnc3sc4c(c23)CCN(C(=O)/C=C/CN2CCOC[C@@H]2C)C4)ccc1Oc1ccc2ncnn2c1 [Compound 79]
< 100	< 100	100 to 1000	> 10000	< 100	C (C: ≥ 10 and < 20)	Cc1ccc(Oc2ccc(Nc3ncnc4sc5c(c34)CCN(C(=O)/C=C/CN3CCOC(C)(C)C3)C5)cc2C)cn1 [Compound 28]
< 100	< 100	100 to 1000	> 10000	100 to 1000	B (B: ≥ 20 and < 100)	Cc1ccc(Oc2ccc(Nc3ncnc4sc5c(c34)CCN(C(=O)/C=C/CN3CCOC[C@@H]3C)C5)cc2C)cn1 [Compound 32]
< 100	< 100	< 100	> 10000	< 100	C (C: ≥ 10 and < 20)	Cc1ccc(Oc2ccc(Nc3ncnc4sc5c(c34)CCN(C(=O)/C=C/CN3CCOCC3(C)C)C5)cc2C)cn1 [Compound 29]
	1000 to 10000	1000 to 10000	> 10000			Cc1ccc(Oc2ccc(Nc3ncnc4sc5c(c34)CCN(C(=O)/C=C/CN3CCN4CCC3CC4)C5)cc2C)cn1 [Compound 116]
< 100	< 100	100 to 1000	> 10000	100 to 1000	D (D: ≥ 5 and < 10)	Cc1ccc(Oc2ccc(Nc3ncnc4sc5c(c34)CCN(C(=O)/C=C/CN3CCOCC34CCC4)C5)cc2C)cn1 [Compound 31]

Compound	EC50 [1] [nM]	IC50 [2] [nM]	IC50 [3] [nM]	IC50 [4] [nM]	EC50 [5] [nM]	Selectivity A431 EC50/BT474 EC50 [5]
Cc1ccc(Oc2ccc(Nc3ncnc4sc5c(c34)CCN(C(=O)/C=C/CN3CC4CCC(C4)C3)C5)cc2C)cn1 [Compound 27]				1000 to 10000	< 100	B (B: ≥ 20 and < 100)
Cc1ccc(Oc2ccc(Nc3ncnc4sc5c(c34)CCN(C(=O)/C=C/CN3CC4CC(C4)C3)C5)cc2C)cn1 [Compound 36]	< 100	< 100	< 100	1000 to 10000	< 100	D (D: ≥ 5 and < 10)
